Measurements reported in patent US20050031537A1, “Multifunctional COX-2 inhibitors” (priority 2002, published 2005).

Key:
Type in all cases: cell-based, human
[1] = system: tcf/lef/β-catenin-mediated promoter activation; assay: TOPflash/FOPflash reporter assay for tcf/lef/β-catenin-mediated promoter activation (test (f)); conditions: positive in 184B5, 184B5/HER, HCA7, HCT116, SKBR3 and BT474 cells; 24 h
Text: Tcf/lef/β-catenin is a transcription factor complex that has been implicated in the regulation of genes involved in carcinogenesis. Increased tcf/lef/β-catenin-mediated gene expression has been linked to pathogenesis of colon cancer. Tcf/lef/β-catenin is described in Barker, N., et al, Adv. Cancer Res. 77, 1-24 (2000), the whole of which is incorporated herein by reference.
Cells (cell lines were 184B5, 184B5/HER, HCA7, HCT116, SKBR3 and BT474) were split into 6 well dishes and the next day were transiently transfected using 8 μg of LipofectAMlNE as per the manufacturer's instructions (Invitrogen, CA). 1.8 μg/dish of the wildtype Tcf/Lef reporter plasmid TOP flash or the mutant plasmid FOP flash was transfected into the cells and 0.2 μg of pSV-β-galactosidase. FOPflash differs from TOPflash by the mutation of its Tcf binding sites and serves to differentiate Tef/-catenin-mediated signaling from background (Upstate Biotechnology, Inc.). Cells were incubated overnight and were treated for 24 hours with either vehicle or test compound. Luciferase activity in the extracts was measured as described above and was corrected for background by subtraction of FOP-FLASH values from corresponding TOP-FLASH values.

[2] = system: HER-2/neu; assay: Western blotting for expression of HER-2/neu (test (b)); conditions: positive in 184B5/HER, BT474 and SKBR3 cells; 24 h; Western blot
Text: We turn now to the criterion (b), that is at least 50% decrease in level of or 50% downregulation of expression of Class I family of receptors tyrosine kinase. The Class I family of receptors tyrosine kinase is described in Reese, M. D., et al Stem Cells 15, pages 1-8 (1997), the whole of which in incorporated herein by reference. Members of the family include HER-2/neu, HER-3, HER-4 and epidermal growth factor receptor (EGFR) and are single-chain membrane spanning proteins which have significant homology to one another including about 80% amino acid identity in the tyrosine kinase domain.
HER-2/neu (erbB-2) gene product is a 185-kDA transmembrane receptor tyrosine kinase that is described in some detail in said Reese et al publication and overexpression thereof has been associated with tumor growth in several kinds of cancer.
To evaluate the expression of Class I family of receptors tyrosine kinase (EGFR, HER-2/neu), Western blotting can be performed. Antibodies for EGFR and HER-2/neu can be obtained from Santa Cruz Biotechnology, Inc.
Expression of EGFR (performed in 184B5, 184B5/HER, 1483, LNCaP, HeLa and CaSki cells)and HER-2/neu (performed in 184B5/HER, SKBR3 and BT474 cells) was assessed in cells after treatment with test compound for 24 hours. 5×10^6 cells were used for the treatment. Western blotting technique was used to assess the expression levels in cells treated with the test compound compared to vehicle alone. Western blotting was carried out as follows:
Cell lysates were prepared by treating cells with lysis buffer (150 mM NaCl, 100 mM Tris (pH 8.0), 1% Tween 20, 50 mM diethyldithiocarbamate, 1 mM EDTA, 1 mM phenylmethylsulfonyl fluoride, 10 μg/ml aprotinin, 10 μg/ml trypsin inhibitor and 10 μg/ml leupeptin). Lysates were sonicated for 20 s on ice and centrifuged at 10,000×g for 10 min to sediment the particulate material. The protein concentration of the supernatant was measured by the method of Lowry, O. H., et al., J. Biol. Chem. 193, 265-275 (195 1). SDS/PAGE was performed under reducing conditions on 10% polyacrylamide gels as described by Laemmli, U.K., Nature (Lond.) 227, 680-685 (1970). The resolved proteins were transferred onto nitrocellulose sheets as detailed by Towbin, H. et al., Proc. Natl. Acad. Sci. USA 76, 4350-4354 (1979). The nitrocellulose membrane was then incubated with anti-EGFR antiserum or anti-HER-2/neu antiserum. Secondary antibody to IgG conjugated to horseradish peroxidase was used. The various antisera were purchased from Santa Cruz Biotechnology, Inc., CA. The blots were probed with the Renaissance Western blot detection system according to the manufacturer's instructions (PerkinElmer Life Sciences, Boston, Mass.).

[3] = system: PPRE luciferase; assay: PPRE luciferase activation, transient transfection reporter assay (test (a)); conditions: for Test (a) activation of PPRE luciferase by at least 100%: positive in 184B5, 184B5/HER, HCA7, HCT116, SKBR3 and BT474 cells, 24 h treatment
Text: We turn now to criterion (a), that is activation of PPRE luciferase by at least 100%. PPRE-luciferase refers to a DNA construct containing the peroxisome proliferator activated receptor (PPAR) binding element joined to luciferase. Cells are transfected with PPRE-luciferase DNA. Ligands of PPAR induce luciferase activity. The ability of a test compound to stimulate PPRE-luciferase signifies that the test compound activates PPAR-mediated gene transcription. PPRE means peroxisome proliferator response element and the method by which PPRE-luciferase is constructed is described in Schoonjans, K., et al, J. Biol. Chem. 270, No. 33, 19269-19276 (Aug. 18, 1995). Use of PPRE-luciferase in a transient transfection to measure increase in promoter activity is disclosed in Subbaramaiah, K. et al, J. Biol. Chem. 270, No. 15, 12440-12448 (Apr. 13, […]).
For each well, 1.8 μg of PPRE3-tk-luciferase construct plasmid DNA (described in Forman, B. M., et al, Cell 83, 803 (1995)) plus 0.2 μg of pSV-β-galactosidase were introduced into cells using 8 μg of LipofectAMINE as per the manufacturer's instructions (Invitrogen, CA). After 7 h of incubation, the medium was replaced with basal medium. After transfection, cells were treated with test compound for 24 h. Reporter activities which include luciferase and β-galactosidase were measured in cellular extract 24 h later. Six wells were used for each of the conditions. Luciferase activity represents data that have been normalized with β-galactosidase.
The luciferase assay was performed as per the BD Pharmingen assay reagents. The Enhanced Luciferase Assay Kit provides a firefly luciferase substrate formulation (Substrates A and B) and cell lysis buffer intended for use in measuring luciferase expressed by transfected cells. Media from cell culture plates was removed and rinsed twice with phosphate buffered saline. Enough 1X cell lysis buffer was added to cover cells and incubated at room temperature for 15-20 min. Cells were dislodged by scraping and transferred to microcentrifuge tubes. […] 20-100 μl cell extract was placed into an assay cuvette. One automatic injector type luminometer is used for assay. Manually 100 μl of Substrate A was added to the assay cuvette and automatically 100 μl of Substrate B was injected. Measurements were performed using a luminometer, for a measurement time of 10 seconds.
The β-galactosidase assay was performed as follows:
50 μl of cell lysate from above was incubated with 50 μl of o-nitrophenyl-β-D-galactoside (ONPG; 4 mg/mL) in Z buffer, (Na2HPO4.7H2O (0.06M), NaH2PO4.H2O (0.04M), 1M KCl (0.01M), 1M MgSO4 (0.001M), β-mercaptoethanol (BME) (0.05M) pH 7.0). The reaction was stopped after sufficient yellow color has developed. The yellow color developed is measured at A420 […].

SMILES | Test (f) at least 50% inhibition of tcf/lef/β-catenin-mediated promoter activation [1] | Test (b) HER-2/neu: at least 50% decrease in level of or 50% downregulation of expression [2] | Test (a) activation of PPRE luciferase by at least 100% [3] | activation of the promoter (PPRE-luciferase) ([3]; 184B5 cells, 24 hours, highest concentration)
CS(=O)(=O)c1ccc(-n2nc(C(F)(F)F)cc2-c2ccc(F)cc2)cc1 [SC-58125, 4-[5-(4-fluorophenyl)-3-(trifluoromethyl)-1H-pyrazol-1-yl]benzenemethylsulfone] | + (A plus sign in the table indicates a positive result, that is meeting the test for each cell line as indicated above as providing a positive result) | + (A plus sign in the table indicates a positive result, that is meeting the test for each cell line as indicated above as providing a positive result) | + (A plus sign in the table indicates a positive result, that is meeting the test for each cell line as indicated above as providing a positive result) | –
COc1ccc(OC(=O)Cc2c(C)n(C(=O)c3ccc(Cl)cc3)c3ccc(OC)cc23)cc1 [Indomethacin Analog 3, 1-(p-chlorobenzoyl)-5-methoxy-2-methyl-1H-indole-3-acetic acid, 4-methoxyphenyl ester] | + (A plus sign in the table indicates a positive result, that is meeting the test for each cell line as indicated above as providing a positive result) | + (A plus sign in the table indicates a positive result, that is meeting the test for each cell line as indicated above as providing a positive result) | + (A plus sign in the table indicates a positive result, that is meeting the test for each cell line as indicated above as providing a positive result) | –
NS(=O)(=O)c1ccc(-n2nc(C(F)(F)F)cc2-c2ccc(Cl)cc2)cc1 [SC-236, 4-[5-(4-chlorophenyl)-3-(trifluoromethyl)-1H-pyrazol-1-yl]benzenesulfonamide] | + (A plus sign in the table indicates a positive result, that is meeting the test for each cell line as indicated above as providing a positive result) | + (A plus sign in the table indicates a positive result, that is meeting the test for each cell line as indicated above as providing a positive result) | + (A plus sign in the table indicates a positive result, that is meeting the test for each cell line as indicated above as providing a positive result) | 150%
CCCCCCCOC(=O)Cc1c(C)n(C(=O)c2ccc(Cl)cc2)c2ccc(OC)cc12 [Indomethacin Analog 1, indomethacin heptyl ester] | + (A plus sign in the table indicates a positive result, that is meeting the test for each cell line as indicated above as providing a positive result) | + (A plus sign in the table indicates a positive result, that is meeting the test for each cell line as indicated above as providing a positive result) | + (A plus sign in the table indicates a positive result, that is meeting the test for each cell line as indicated above as providing a positive result) | –
Cc1ccc(-c2cc(C(F)(F)F)nn2-c2ccc(S(N)(=O)=O)cc2)cc1 [Celecoxib] | + (A plus sign in the table indicates a positive result, that is meeting the test for each cell line as indicated above as providing a positive result) | + (A plus sign in the table indicates a positive result, that is meeting the test for each cell line as indicated above as providing a positive result) | + (A plus sign in the table indicates a positive result, that is meeting the test for each cell line as indicated above as providing a positive result) | –
